Results: patent US10168342B2, “Lipid probes and uses thereof” (THE SCRIPPS RESEARCH INSTITUTE, priority 2015, dated 2019)

Key:
Test in all cases: In situ competitive SILAC profiling with A-DA probe in (PMA-stimulated) A549 cells
Settings in all cases: A549 cells, A-DA probe
[1] = target: T1, A-DA lipid probe targets in A549 cells (Homo sapiens, UniProt P50402)
T1 sequence (P50402 1-254): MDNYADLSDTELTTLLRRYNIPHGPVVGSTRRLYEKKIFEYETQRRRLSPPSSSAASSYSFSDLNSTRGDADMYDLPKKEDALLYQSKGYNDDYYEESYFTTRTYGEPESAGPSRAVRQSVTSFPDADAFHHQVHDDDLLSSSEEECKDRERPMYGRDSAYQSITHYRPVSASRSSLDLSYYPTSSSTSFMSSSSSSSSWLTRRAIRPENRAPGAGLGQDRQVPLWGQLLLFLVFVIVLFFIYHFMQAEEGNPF

[2] = target: T2, A-DA lipid probe targets in A549 cells (Homo sapiens, UniProt P67812)
T2 sequence (P67812 1-179): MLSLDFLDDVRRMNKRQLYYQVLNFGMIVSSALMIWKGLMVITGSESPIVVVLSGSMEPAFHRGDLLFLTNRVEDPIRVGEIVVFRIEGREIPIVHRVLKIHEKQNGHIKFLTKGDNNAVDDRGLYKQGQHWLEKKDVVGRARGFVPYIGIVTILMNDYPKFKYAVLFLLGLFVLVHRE

[3] = target: T3, A-DA lipid probe targets in A549 cells (Homo sapiens, UniProt Q8IZV5)
T3 sequence (Q8IZV5 1-341): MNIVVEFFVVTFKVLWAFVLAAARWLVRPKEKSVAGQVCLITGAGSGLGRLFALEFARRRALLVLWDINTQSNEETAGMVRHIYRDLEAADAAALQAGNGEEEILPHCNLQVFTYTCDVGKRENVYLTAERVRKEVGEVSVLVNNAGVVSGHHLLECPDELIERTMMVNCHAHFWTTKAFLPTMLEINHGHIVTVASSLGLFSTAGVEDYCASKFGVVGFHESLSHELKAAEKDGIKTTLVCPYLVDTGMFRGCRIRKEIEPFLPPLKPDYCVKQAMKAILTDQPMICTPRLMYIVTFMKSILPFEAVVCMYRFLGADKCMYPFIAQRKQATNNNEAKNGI

[4] = target: T4, A-DA lipid probe targets in A549 cells (Homo sapiens, UniProt Q96G23)
T4 sequence (Q96G23 1-380): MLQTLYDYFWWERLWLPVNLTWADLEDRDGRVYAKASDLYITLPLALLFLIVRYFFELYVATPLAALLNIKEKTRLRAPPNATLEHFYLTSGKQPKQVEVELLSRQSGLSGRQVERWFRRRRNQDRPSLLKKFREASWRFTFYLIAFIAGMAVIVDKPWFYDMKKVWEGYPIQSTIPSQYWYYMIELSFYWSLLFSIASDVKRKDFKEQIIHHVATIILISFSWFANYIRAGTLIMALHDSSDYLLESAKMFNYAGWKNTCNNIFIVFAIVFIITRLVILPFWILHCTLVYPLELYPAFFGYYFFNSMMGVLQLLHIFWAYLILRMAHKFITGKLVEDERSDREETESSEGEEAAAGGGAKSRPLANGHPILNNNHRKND

[5] = target: T5, A-DA lipid probe targets in A549 cells (Homo sapiens, UniProt Q9BTX1)
T5 sequence (Q9BTX1 1-674): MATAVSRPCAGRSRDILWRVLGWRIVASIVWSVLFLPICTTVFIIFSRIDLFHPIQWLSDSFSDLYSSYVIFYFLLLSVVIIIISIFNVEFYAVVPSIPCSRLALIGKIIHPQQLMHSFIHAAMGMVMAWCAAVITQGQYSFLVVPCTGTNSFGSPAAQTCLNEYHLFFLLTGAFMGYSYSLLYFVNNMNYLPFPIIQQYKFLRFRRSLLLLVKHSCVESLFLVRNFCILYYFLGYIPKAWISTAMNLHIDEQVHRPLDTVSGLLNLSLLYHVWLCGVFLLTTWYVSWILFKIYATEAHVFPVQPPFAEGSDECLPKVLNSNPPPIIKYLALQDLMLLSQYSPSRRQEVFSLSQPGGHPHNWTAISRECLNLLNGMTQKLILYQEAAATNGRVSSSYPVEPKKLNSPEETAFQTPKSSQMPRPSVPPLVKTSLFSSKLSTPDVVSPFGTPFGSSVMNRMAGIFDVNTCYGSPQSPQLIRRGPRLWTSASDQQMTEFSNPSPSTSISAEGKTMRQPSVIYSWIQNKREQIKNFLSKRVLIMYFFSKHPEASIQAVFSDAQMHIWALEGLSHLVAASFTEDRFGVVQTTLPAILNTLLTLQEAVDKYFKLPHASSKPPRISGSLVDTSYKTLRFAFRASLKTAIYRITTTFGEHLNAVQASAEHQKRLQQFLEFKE

[6] = target: A-DA lipid probe targets in A549 cells (Homo sapiens, UniProt Q9H6K4)
[7] = target: A-DA lipid probe targets in A549 cells (Homo sapiens, UniProt Q9NX47)
A-DA lipid probe targets in A549 cells (Homo sapiens, UniProt Q9NX47), sequence (Q9NX47 whole entry): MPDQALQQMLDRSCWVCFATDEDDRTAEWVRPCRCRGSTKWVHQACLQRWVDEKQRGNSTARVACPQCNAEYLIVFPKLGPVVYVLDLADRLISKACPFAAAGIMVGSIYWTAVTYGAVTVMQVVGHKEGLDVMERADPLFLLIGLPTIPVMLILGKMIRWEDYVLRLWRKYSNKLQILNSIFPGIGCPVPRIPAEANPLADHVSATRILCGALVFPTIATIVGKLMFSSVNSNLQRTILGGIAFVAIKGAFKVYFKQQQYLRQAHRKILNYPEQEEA

A-DA lipid probe targets in A549 cells (Homo sapiens, UniProt Q9H6K4), sequence (Q9H6K4 whole entry): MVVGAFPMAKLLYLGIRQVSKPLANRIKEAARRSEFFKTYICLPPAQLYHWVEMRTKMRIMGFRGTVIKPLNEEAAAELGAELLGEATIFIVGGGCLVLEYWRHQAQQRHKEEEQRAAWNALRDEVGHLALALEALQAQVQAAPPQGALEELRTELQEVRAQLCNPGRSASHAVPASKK

Compound	SILAC ratio, EMD (O08579) ([1]; competitor 25 μM)	SILAC ratio, SEC11A (P67812) ([2]; competitor 25 μM)	SILAC ratio, RDH10 (Q8IZV5) ([3]; competitor 25 μM)	SILAC ratio, CERS2 (Q924Z4) ([4]; competitor 25 μM)	SILAC ratio, TMEM48 (Q8VCB1) ([5]; competitor 25 μM)	SILAC ratio, OPA3 (Q505D7) ([6]; competitor 25 μM)	SILAC ratio, MARCH5 (Q3KNM2) ([7]; competitor 25 μM)	SILAC ratio, EMD (O08579) ([1]; competitor 5 μM)	SILAC ratio, EMD (O08579) ([1]; competitor 50 μM)	SILAC ratio, SEC11A (P67812) ([2]; competitor 5 μM)	SILAC ratio, SEC11A (P67812) ([2]; competitor 50 μM)	SILAC ratio, RDH10 (Q8IZV5) ([3]; competitor 5 μM)	SILAC ratio, RDH10 (Q8IZV5) ([3]; competitor 50 μM)	SILAC ratio, CERS2 (Q924Z4) ([4]; competitor 5 μM)	SILAC ratio, CERS2 (Q924Z4) ([4]; competitor 50 μM)	SILAC ratio, TMEM48 (Q8VCB1) ([5]; competitor 5 μM)	SILAC ratio, TMEM48 (Q8VCB1) ([5]; competitor 50 μM)	SILAC ratio, OPA3 (Q505D7) ([6]; competitor 5 μM)	SILAC ratio, MARCH5 (Q3KNM2) ([7]; competitor 5 μM)
O=C(/C=C/c1cccnc1)NCCCCC1CCN(C(=O)c2ccccc2)CC1 [FK-866, reference compound]	1.3	1.2	3.1	1.4	1.2	1.3	1.3												
C=CCN(C)CCCCCCOc1ccc(C(=O)c2ccc(Br)cc2)c(F)c1 [Ro488071]								0.6	0.8	1.5	3.3	1.9	2.8	1.5	2.5	1.5	2.8	1.8	1.2
